# Reference: paper PMC12144822 (Parasites & Vectors, 2025)
# Assays:
# Assay in all cases: Two-electrode voltage-clamp concentration-activation by the natural agonist, receptor expressed in Xenopus oocytes
# Type in all cases: cell-based
# Design in all cases: The corresponding open reading frames (ORF) were cloned into the pT7-TS transcription vector; expressed in transfected cells; host or cells: Xenopus laevis oocytes, cRNA injection
# Conditions in all cases: concentration-activation curve
# Hsa-GABA α1β2γ2 = Hsa-GABA α1β2γ2 (Homo sapiens, UniProt P14867+P18507+P47870)
# Chain of Hsa-GABA α1β2γ2 (P14867 28-456): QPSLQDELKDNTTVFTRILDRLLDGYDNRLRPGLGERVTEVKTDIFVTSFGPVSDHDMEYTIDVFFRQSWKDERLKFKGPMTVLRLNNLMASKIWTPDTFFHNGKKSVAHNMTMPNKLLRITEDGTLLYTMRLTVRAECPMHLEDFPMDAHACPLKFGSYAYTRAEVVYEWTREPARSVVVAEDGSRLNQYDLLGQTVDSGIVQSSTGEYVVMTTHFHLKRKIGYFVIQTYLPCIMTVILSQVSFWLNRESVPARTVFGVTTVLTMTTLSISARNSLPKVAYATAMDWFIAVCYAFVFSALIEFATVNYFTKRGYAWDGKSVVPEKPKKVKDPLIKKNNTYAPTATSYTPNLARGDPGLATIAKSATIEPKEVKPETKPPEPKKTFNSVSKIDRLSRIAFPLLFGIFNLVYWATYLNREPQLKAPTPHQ
# Chain of Hsa-GABA α1β2γ2 (P47870 26-474 isoform P47870-1 limits assumed): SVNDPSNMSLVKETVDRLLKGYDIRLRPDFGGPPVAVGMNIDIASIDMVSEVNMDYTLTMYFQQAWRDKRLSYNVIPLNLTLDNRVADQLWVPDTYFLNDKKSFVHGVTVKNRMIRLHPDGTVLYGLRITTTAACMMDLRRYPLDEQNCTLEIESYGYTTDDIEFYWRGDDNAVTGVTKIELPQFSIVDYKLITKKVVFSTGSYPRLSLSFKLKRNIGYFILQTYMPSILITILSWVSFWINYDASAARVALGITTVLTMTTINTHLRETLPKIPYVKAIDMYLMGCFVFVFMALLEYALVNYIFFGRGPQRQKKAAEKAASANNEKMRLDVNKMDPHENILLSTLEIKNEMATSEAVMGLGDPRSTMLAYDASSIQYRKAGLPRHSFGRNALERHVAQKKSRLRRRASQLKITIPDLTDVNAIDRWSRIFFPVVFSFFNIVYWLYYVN
# Chain of Hsa-GABA α1β2γ2 (P18507 40-467 isoform P18507-1 limits assumed): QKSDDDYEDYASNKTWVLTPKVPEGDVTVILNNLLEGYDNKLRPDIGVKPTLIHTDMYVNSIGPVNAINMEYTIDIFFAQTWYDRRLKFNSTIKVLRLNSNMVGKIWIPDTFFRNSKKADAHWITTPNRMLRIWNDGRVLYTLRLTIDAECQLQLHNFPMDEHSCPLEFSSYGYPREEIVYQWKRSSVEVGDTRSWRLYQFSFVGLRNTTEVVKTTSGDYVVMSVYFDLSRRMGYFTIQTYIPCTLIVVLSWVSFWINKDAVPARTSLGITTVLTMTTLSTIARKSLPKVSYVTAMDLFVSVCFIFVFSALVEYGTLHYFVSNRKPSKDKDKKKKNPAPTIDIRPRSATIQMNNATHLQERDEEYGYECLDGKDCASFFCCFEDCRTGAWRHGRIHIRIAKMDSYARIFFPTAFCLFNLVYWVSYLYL
# Text: (§1) Complementary DNA (cDNA) encoding for the human GABAA proteins α1 (NM_001127645.2), α2 (NM_001377146.1), α3 (KJ620007.1), α4 (NM_000809.4), α5 (NM_000810.4), α6 (NM_000811.3), β2 (XM_054352312.1), β3 (M82919.1), γ2 (NM_000816.3) and δ (NM_000815.5) were ordered from Genewiz (www.genewiz.com; Leipzig, Germany); for each gene, GenBank accession numbers are provided in parentheses. When necessary, silent mutations were introduced to break NheI or XhoI internal restriction sites. The corresponding open reading frames (ORF) were cloned into the pT7-TS transcription vector (introducing X. laevis β-globin untranslated cDNA to the 5’ and 3’ ends of the gene), following a procedure described in detail in a previous publication. The same process was used to obtain cDNA encoding canine GABAA proteins α4 (XM_025435560.1), α6 (XM_022417729.1) and δ (XM_005620414.2). Gene α2 (XM_025435664.1), α3 (XM_549343.5), α5 (XM_545805.6) and β3 (XM_025437408.1) were obtained by PCR; GenBank reference accession numbers are provided in parentheses. RNA extraction, cDNA synthesis and PCR amplification were performed as described previously. Total RNA was extracted from a piece of dog brain (Beagle breed; Canis lupus familiaris) from which 1 µg of total RNA (DNase-treated) was reverse-transcribed to cDNA using a (dT)30 primer and SuperScript III Reverse Transcriptase (Invitrogen, Thermo Fisher Scientific, Waltham, MA, USA). Gene-specific primers (Additional file 1: Table S1) were designed using Primer 3 software (http://frodo.wi.mit.edu/). […] The cycling conditions were: 98 °C for 30 s; then 38 cycles of 98 °C for 10 s, 58 °C for 30 s and 72 °C for 90 s; followed by 72 °C for 5 min. The dog subunits α1 (XM_546261.5), β2 (XM_014113040.1) and γ2 (XM_546259.5) had been previously amplified and described in a study by Rufener et al..
# (§2) Defoliculated X. laevis oocytes ordered from Ecocyte Bioscience (Dortmund, Germany) were microinjected with 15–25 nl of cRNA solution (5–50 ng/μl) per oocyte using an automated injector (Roboinject; Multi Channel Systems MCS GmbH, Reutlingen, Germany) and then incubated at 18 °C. All recordings were made 1–5 days post-cRNA injection and were performed at 18 ± 4 °C. Cells were superfused with OR2 medium (NaCl 88 mM, KCl 2.5 mM, HEPES 5 mM, CaCl2•2H2O 1.8 mM, MgCl2•7H2O 1.0 mM, pH 7.4). To ensure that γ2 subunits were integrated into the heteropentamers, we injected fivefold more γ2 than the other subunit cRNAs. Diazepam is a positive allosteric modulator of GABAR only if γ2 subunits are present. Therefore, we used this method to confirm the presence of human and dog GABAA receptor containing the γ2 subunit.
# (§3) Voltage-clamp measurements were performed as described by Rufener et al.. Oocytes were impaled with two electrodes filled with 3 M KCl, and their membrane potentials were maintained at − 80 mV throughout the experiment. […] Recordings were performed using an automated process equipped with standard two-electrode voltage-clamp configuration (HiClamp system; Multi Channel Systems MCS GmbH). Data were filtered at 10 Hz, captured at 100 Hz and analyzed using proprietary data acquisition and analysis software in MATLAB (Mathworks Inc., Natick, MA, USA). Additional analyses were performed using Excel (Microsoft, Redmond, WA, USA). […] Graphing the maximum inward currents against the log of agonist concentration produces typical concentration-activation and concentration-inhibition curves, which can be accurately described using individual Hill equations.
# Hsa-GABA α2β2γ2 = Hsa-GABA α2β2γ2 (Homo sapiens, UniProt P18507+P47869+P47870)
# Chain of Hsa-GABA α2β2γ2 (P47869 29-451): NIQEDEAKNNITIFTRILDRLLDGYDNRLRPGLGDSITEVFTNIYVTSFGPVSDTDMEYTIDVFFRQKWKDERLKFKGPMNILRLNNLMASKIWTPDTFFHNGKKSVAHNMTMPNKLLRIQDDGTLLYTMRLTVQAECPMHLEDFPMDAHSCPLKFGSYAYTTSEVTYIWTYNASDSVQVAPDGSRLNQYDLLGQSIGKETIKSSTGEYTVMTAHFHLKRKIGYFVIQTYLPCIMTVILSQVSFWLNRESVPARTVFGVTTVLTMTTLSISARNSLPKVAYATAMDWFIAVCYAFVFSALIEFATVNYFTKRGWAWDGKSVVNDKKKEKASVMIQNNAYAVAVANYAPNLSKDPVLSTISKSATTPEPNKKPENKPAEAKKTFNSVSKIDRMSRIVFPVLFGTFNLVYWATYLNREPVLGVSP
# Chain of Hsa-GABA α2β2γ2 (P47870 26-474 isoform P47870-1 limits assumed): as the sequence (P47870 26-474 isoform P47870-1 limits assumed) above
# Chain of Hsa-GABA α2β2γ2 (P18507 40-467 isoform P18507-1 limits assumed): as the sequence (P18507 40-467 isoform P18507-1 limits assumed) above
# Text: as §1, §2, §3
# Hsa-GABA α2β3γ2 = Hsa-GABA α2β3γ2 (Homo sapiens, UniProt P18507+P28472+P47869)
# Chain of Hsa-GABA α2β3γ2 (P47869 29-451): as the sequence (P47869 29-451) above
# Chain of Hsa-GABA α2β3γ2 (P28472 26-473): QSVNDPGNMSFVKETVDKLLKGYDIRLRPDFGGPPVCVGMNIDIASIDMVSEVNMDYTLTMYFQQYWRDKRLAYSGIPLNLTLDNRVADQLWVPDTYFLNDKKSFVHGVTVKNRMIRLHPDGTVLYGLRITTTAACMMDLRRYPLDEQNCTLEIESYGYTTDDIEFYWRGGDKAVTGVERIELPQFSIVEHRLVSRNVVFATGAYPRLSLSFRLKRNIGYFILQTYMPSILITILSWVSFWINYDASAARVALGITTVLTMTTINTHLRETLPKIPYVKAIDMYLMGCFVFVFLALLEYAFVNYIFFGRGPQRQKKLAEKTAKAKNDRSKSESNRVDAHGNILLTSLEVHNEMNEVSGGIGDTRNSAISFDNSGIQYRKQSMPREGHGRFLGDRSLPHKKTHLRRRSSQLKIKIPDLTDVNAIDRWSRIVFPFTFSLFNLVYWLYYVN
# Chain of Hsa-GABA α2β3γ2 (P18507 40-467 isoform P18507-1 limits assumed): as the sequence (P18507 40-467 isoform P18507-1 limits assumed) above
# Text: as §1, §2, §3
# Hsa-GABA α3β2γ2 = Hsa-GABA α3β2γ2 (Homo sapiens, UniProt P18507+P34903+P47870)
# Chain of Hsa-GABA α3β2γ2 (P34903 29-492): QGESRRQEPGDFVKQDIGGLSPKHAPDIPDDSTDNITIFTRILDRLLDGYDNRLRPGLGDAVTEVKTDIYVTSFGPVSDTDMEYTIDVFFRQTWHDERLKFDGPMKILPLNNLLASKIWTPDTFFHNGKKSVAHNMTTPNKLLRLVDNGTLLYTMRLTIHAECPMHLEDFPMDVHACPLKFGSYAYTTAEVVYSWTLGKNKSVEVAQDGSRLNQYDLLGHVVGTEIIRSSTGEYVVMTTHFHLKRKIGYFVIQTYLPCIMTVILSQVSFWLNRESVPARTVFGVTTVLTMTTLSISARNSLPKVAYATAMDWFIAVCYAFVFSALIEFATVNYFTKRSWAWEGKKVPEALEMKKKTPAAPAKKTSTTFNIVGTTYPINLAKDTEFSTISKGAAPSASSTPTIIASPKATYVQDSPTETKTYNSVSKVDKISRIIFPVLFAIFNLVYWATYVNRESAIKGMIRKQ
# Chain of Hsa-GABA α3β2γ2 (P47870 26-474 isoform P47870-1 limits assumed): as the sequence (P47870 26-474 isoform P47870-1 limits assumed) above
# Chain of Hsa-GABA α3β2γ2 (P18507 40-467 isoform P18507-1 limits assumed): as the sequence (P18507 40-467 isoform P18507-1 limits assumed) above
# Text: as §1, §2, §3
# Hsa-GABA α6β2γ2 = Hsa-GABA α6β2γ2 (Homo sapiens, UniProt P18507+P47870+Q16445)
# Chain of Hsa-GABA α6β2γ2 (Q16445 20-453): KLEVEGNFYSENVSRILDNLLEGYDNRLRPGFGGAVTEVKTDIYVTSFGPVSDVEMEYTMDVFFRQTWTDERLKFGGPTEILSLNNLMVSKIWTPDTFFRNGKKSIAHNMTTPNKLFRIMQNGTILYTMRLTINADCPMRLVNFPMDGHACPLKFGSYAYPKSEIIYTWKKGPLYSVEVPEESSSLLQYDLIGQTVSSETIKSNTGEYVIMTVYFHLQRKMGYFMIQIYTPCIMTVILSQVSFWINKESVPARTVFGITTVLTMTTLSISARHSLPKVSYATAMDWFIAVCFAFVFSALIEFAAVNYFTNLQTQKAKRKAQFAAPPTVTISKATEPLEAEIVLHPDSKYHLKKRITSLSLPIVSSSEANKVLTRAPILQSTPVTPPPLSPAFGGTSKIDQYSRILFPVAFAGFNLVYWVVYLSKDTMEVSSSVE
# Chain of Hsa-GABA α6β2γ2 (P47870 26-474 isoform P47870-1 limits assumed): as the sequence (P47870 26-474 isoform P47870-1 limits assumed) above
# Chain of Hsa-GABA α6β2γ2 (P18507 40-467 isoform P18507-1 limits assumed): as the sequence (P18507 40-467 isoform P18507-1 limits assumed) above
# Text: as §1, §2, §3
smiles,measurement,setting,value
"NCCCC(=O)O [GABA, gamma-aminobutyric acid]",nH (Hill coefficient),Hsa-GABA α1β2γ2,1.7
same,nH (Hill coefficient),Hsa-GABA α2β2γ2,1.4
same,nH (Hill coefficient),Hsa-GABA α2β3γ2,1.2
same,nH (Hill coefficient),Hsa-GABA α3β2γ2,1.2
same,nH (Hill coefficient),Hsa-GABA α6β2γ2,1.1
